Molecules are shown by their SMILES.

One test deals with human recombinant PLK4 (Homo sapiens (Human), UniProt O00444). Briefly: PLK4 Biochemical Assay (ADP-Glo). To be noted: 0.5 nM PLK4, 8.0 µM ATP, 4.7 µM MBP, 6 hours at RT. The gist of the method:
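Luminescent ADP-Glo detection quantified ADP production, with ATP depletion for 40 min and detection for 30 min at room temperature. Compound and PLK4 (1.0 nM stock addition) were preincubated 15 min in HEPES pH 7.5 buffer containing MgCl2, EGTA, DTT, Brij-35 and BSA. IC50 values were obtained by four-parameter nonlinear regression.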
(In general: ADP-Glo turns the ADP formed in a reaction into a luminescent signal.)

In the next test the test system is CHP-134 cells. In words: CHP134 CellTiter-Glo (CTG) Assay. In kind it is cell-based. The conditions noted are these: Homo sapiens, CHP-134, 120 h, 5 days, viable cells by CellTiter-Glo. An outline of the steps:
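Nine-point 1:3 dilution series, diluted into growth media, added in quadruplicate to CHP-134 cells plated 16 h earlier at 200 cells/well.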
For orientation: In ATP-based viability assays light output follows the ATP content of the culture.

Test [1] has as its target human recombinant Aurora A (Homo sapiens (Human), UniProt O14965). Briefly: Aurora A Kinase Biochemical Assay (ADP-Glo). The conditions noted are these: ratio of Aurora A IC50 to PLK4 IC50 (selectivity).
For test [2], the target named is human recombinant Aurora B (Homo sapiens (Human), UniProt Q96GD4). In words: Aurora B Kinase Biochemical Assay (ADP-Glo). To be noted: ratio of Aurora B IC50 to PLK4 IC50 (selectivity). An outline of the steps: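 IC50 derived by four-parameter nonlinear fit of ADP-Glo luminescence (ADP produced). Compound was preincubated 15 min at RT with 20 nM recombinant human Aurora B, in 50 mM HEPES pH 7.5, 10 mM MgCl2, 1 mM EGTA, 1 mM DTT, 0.01% Brij-35/BSA.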
human recombinant Aurora B, sequence (Q96GD4 whole entry): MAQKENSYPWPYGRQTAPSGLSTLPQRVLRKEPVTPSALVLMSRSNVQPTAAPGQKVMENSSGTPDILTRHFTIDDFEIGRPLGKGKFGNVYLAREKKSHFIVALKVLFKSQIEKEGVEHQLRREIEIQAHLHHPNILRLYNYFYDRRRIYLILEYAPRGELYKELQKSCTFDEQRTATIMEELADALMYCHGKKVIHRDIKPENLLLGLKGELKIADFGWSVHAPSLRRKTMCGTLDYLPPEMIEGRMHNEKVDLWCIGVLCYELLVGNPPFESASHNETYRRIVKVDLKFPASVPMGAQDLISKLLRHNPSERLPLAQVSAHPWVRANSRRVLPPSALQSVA

human recombinant Aurora A, sequence (O14965 whole entry): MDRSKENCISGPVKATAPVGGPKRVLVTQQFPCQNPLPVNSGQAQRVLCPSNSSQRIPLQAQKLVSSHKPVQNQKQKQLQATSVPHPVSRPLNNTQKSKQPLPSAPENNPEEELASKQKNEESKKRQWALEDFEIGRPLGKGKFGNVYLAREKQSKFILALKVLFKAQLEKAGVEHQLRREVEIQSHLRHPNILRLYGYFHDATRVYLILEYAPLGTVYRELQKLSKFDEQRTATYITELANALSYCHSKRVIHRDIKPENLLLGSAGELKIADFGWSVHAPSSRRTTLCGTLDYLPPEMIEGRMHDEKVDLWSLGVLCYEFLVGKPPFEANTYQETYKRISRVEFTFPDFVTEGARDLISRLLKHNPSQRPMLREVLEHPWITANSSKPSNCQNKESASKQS
human recombinant PLK4, sequence (O00444 whole entry): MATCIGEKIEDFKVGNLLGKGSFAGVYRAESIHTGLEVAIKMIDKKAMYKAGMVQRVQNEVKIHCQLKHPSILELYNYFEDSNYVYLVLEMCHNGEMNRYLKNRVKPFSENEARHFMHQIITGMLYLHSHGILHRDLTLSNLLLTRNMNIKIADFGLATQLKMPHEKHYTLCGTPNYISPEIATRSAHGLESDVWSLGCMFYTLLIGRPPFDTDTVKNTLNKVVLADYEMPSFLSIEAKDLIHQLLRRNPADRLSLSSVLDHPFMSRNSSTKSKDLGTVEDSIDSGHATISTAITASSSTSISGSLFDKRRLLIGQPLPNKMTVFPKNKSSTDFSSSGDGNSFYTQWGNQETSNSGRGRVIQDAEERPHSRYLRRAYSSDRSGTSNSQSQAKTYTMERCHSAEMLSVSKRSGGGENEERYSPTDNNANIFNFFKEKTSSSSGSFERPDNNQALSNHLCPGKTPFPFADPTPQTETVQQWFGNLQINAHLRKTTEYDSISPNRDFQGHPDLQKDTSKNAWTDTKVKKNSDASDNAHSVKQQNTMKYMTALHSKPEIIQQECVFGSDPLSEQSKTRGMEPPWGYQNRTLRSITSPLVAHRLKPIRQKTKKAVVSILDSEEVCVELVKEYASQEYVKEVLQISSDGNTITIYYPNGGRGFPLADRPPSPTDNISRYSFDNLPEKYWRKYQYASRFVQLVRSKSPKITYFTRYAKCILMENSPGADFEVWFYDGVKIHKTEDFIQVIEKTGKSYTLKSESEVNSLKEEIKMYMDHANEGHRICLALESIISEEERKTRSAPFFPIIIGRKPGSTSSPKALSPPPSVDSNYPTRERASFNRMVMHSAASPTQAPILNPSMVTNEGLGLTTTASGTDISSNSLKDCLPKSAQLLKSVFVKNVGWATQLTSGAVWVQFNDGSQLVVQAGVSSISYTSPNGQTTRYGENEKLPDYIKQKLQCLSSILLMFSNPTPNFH

What is called IC50 is the midpoint of a concentration-inhibition curve. With `COc1ccc2c(c1)[C@]1(C[C@H]1c1ccc3c(Nc4nc(N5CCOCC5)cnc4OC)n[nH]c3c1)C(=O)N2` [Example 99, (1R,2S)-5′-methoxy-2-(3-{[3-methoxy-6-(morpholin-4-yl)pyrazin-2-yl]amino)-1H-indazol-6-yl)spiro[cyclopropane-1,3′-indol]-2′(1′H)-one], the IC50 at human recombinant PLK4 was found to be 5.8 nM; with CHP-134 cells, 565 nM. The “[Aurora A IC50 (nM)]/[PLK4 IC50 (nM)]” value in test [1] came to 155.05. The “[Aurora B IC50 (nM)]/[PLK4 IC50 (nM)]” value in test [2] came to 129.9724.

For `COc1ccc2c(c1)[C@]1(C[C@H]1c1ccc3c(Nc4nc(C5COC5)cnc4OC)n[nH]c3c1)C(=O)N2` [Example 100, (1R,2S)-5′-methoxy-2-(3-{[3-methoxy-6-(oxetan-3-yl)pyrazin-2-yl]amino}-1H-indazol-6-yl)spiro[cyclopropane-1,3′-indol]-2′(l′H)-one], the IC50 on human recombinant PLK4 was determined as 1.73 nM; with CHP-134 cells, 567 nM. For the same compound, the “[Aurora A IC50 (nM)]/[PLK4 IC50 (nM)]” value in test [1] worked out at 382.0069. Further, the “[Aurora B IC50 (nM)]/[PLK4 IC50 (nM)]” value in test [2] came out at 230.4498.

With `COc1ccc2c(c1)[C@]1(C[C@H]1c1ccc3c(Nc4cc(C(C)C)nnc4OC)n[nH]c3c1)C(=O)N2` [Example 101, (1R,2S)-5′-methoxy-2-(3-{[3-methoxy-6-(propan-2-yl)pyridazin-4-yl]amino}-1H-indazol-6-yl)spiro[cyclopropane-1,3′-indol]-2′(1′H)-one], the IC50 on human recombinant PLK4 worked out at 11.3 nM; with CHP-134 cells it was 2290 nM. In addition, the “[Aurora A IC50 (nM)]/[PLK4 IC50 (nM)]” value in test [1] was 1271.845. Further, the “[Aurora B IC50 (nM)]/[PLK4 IC50 (nM)]” value in test [2] came out at 1002.648.

On to `COc1ccc2c(c1)[C@]1(C[C@H]1c1ccc3c(Nc4ncnc(N5CC(O)C5)c4Cl)n[nH]c3c1)C(=O)N2C` [Example 107, (1R,2S)-2-(3-{[5-chloro-6-(3-hydroxyazetidin-1-yl)pyrimidin-4-yl]amino}-1H-indazol-6-yl)-5′-methoxy-1′-methylspiro[cyclopropane-1,3′-indol]-2′(1′H)-one], for which the half-inhibitory concentration (IC50) came out at 5.7 nM at human recombinant PLK4 and 730 nM with CHP-134 cells. In test [1], the “[Aurora A IC50 (nM)]/[PLK4 IC50 (nM)]” value is 1455.295. Further, the “[Aurora B IC50 (nM)]/[PLK4 IC50 (nM)]” value in test [2] was determined as 174.4215.

Take `CCN1C(=O)[C@@]2(C[C@H]2c2ccc3c(Nc4ncnc(N5CC(O)C5)c4Cl)n[nH]c3c2)c2cc(OC)ccc21` [Example 108, (1R,2S)-2-(3-{[5-chloro-6-(3-hydroxyazetidin-1-yl)pyrimidin-4-yl]amino}-1H-indazol-6-yl)-1′-ethyl-5′-methoxyspiro[cyclopropane-1,3′-indol]-2′(1′H)-one]: the values for the IC50 at human recombinant PLK4 and in the test on CHP-134 cells were 4.37 nM and 1090 nM, respectively. Also, the “[Aurora A IC50 (nM)]/[PLK4 IC50 (nM)]” value in test [1] was 3889.143. Besides, the “[Aurora B IC50 (nM)]/[PLK4 IC50 (nM)]” value in test [2] came out at 230.6459.

Regarding `COc1ccc2c(c1)[C@]1(C[C@H]1c1ccc3c(Nc4ncnc(N5CCOCC5)c4OC(F)F)n[nH]c3c1)C(=O)N2` [Example 109, (1R,2S)-2-(3-{[5-(difluoromethoxy)-6-(morpholin-4-yl)pyrimidin-4-yl]amino}-lH-indazol-6-yl)-5′-methoxyspiro[cyclopropane-1,3′-indol]-2′(1′H)-one], the IC50 on human recombinant PLK4 came to 6.76 nM; in the test with CHP-134 cells, 1870 nM. Besides, the “[Aurora A IC50 (nM)]/[PLK4 IC50 (nM)]” value in test [1] is reported as 50000. Further, the “[Aurora B IC50 (nM)]/[PLK4 IC50 (nM)]” value in test [2] came out at 11070.

As to `COc1ccc2c(c1)[C@]1(C[C@H]1c1ccc3c(Nc4ncnc(N5CCOCC5)c4OC)n[nH]c3c1)C(=O)N2C` [Example 113, (1R,2S)-5′-methoxy-2-(3-{[5-methoxy-6-(morpholin-4-yl)pyrimidin-4-yl]amino}-1H-indazol-6-yl)-1′-methylspiro[cyclopropane-1,3′-indol]-2′(1′H)-one], the IC50 at human recombinant PLK4 was determined as 10.7 nM; with CHP-134 cells, 2520 nM. For the same compound, the “[Aurora A IC50 (nM)]/[PLK4 IC50 (nM)]” value in test [1] was determined as 1888.2629. Further, the “[Aurora B IC50 (nM)]/[PLK4 IC50 (nM)]” value in test [2] is on record as 231.7370.

With `COc1ccc2c(c1)[C@]1(C[C@H]1c1ccc3c(Nc4nc(N5CC(O)C5)ncc4OC)n[nH]c3c1)C(=O)N2` [Example 114], the results for the IC50 at human recombinant PLK4 and with CHP-134 cells were 2.09 nM and 10000 nM, respectively. Besides, the “[Aurora A IC50 (nM)]/[PLK4 IC50 (nM)]” value in test [1] is given as 590.1482. For the same compound, in test [2], the “[Aurora B IC50 (nM)]/[PLK4 IC50 (nM)]” value stood at 811.5734.

Consider `COc1ccc2c(c1)[C@]1(C[C@H]1c1ccc3c(Nc4cncc(C5COC5)n4)n[nH]c3c1)C(=O)N2` [Example 115, (1R,2S)-5′-methoxy-2-(3-{[6-(oxetan-3-yl)pyrazin-2-yl]amino}-1H-indazol-6-yl)spiro[cyclopropane-1,3′-indol]-2′(1′H)-one], for which the figures for the IC50 at human recombinant PLK4 and in the test with CHP-134 cells were 8.04 nM and 3460 nM, respectively. In test [1], the “[Aurora A IC50 (nM)]/[PLK4 IC50 (nM)]” value came to 132.6035. Besides, the “[Aurora B IC50 (nM)]/[PLK4 IC50 (nM)]” value in test [2] amounted to 186.3415.

For the compound `COc1ccc2c(c1)[C@]1(C[C@H]1c1ccc3c(Nc4nc(C5CC5)ncc4Cl)n[nH]c3c1)C(=O)N2` [Example 116, (1R,2S)-2-(3-((5-chloro-2-cyclopropylpyrimidin-4-yl)amino)-1H-indazol-6-yl)-5′-methoxyspiro[cyclopropane-1,3′-indolin]-2′-one], the IC50 was 2.89 nM at human recombinant PLK4 and 134 nM in the test on CHP-134 cells. The “[Aurora A IC50 (nM)]/[PLK4 IC50 (nM)]” value in test [1] was 788.5813. Besides, the “[Aurora B IC50 (nM)]/[PLK4 IC50 (nM)]” value in test [2] is recorded as 483.7370.

Turning to `COc1ccc2c(c1)[C@]1(C[C@H]1c1ccc3c(Nc4nc(C(C)C)ncc4Cl)n[nH]c3c1)C(=O)N2` [Example 117, (1R,2S)-2-(3-{[5-chloro-2-(propan-2-yl)pyrimidin-4-yl]amino}-1H-indazol-6-yl)-5′-methoxyspiro[cyclopropane-1,3′-indol]-2′(1′H)-one], the IC50 on human recombinant PLK4 was found to be 2.32 nM; with CHP-134 cells, 109 nM. Moreover, in test [1], the “[Aurora A IC50 (nM)]/[PLK4 IC50 (nM)]” value turned out to be 1388.1947. The “[Aurora B IC50 (nM)]/[PLK4 IC50 (nM)]” value in test [2] stood at 906.5058.

Regarding `COc1ccc2c(c1)[C@]1(C[C@H]1c1ccc3c(Nc4nc(C5COC5)ncc4Cl)n[nH]c3c1)C(=O)N2` [Example 118, (1R,2S)-2-(3-{[5-chloro-2-(oxetan-3-yl)pyrimidin-4-yl]amino}-1H-indazol-6-yl)-5′-methoxyspiro[cyclopropane-1,3′-indol]-2′(1′H)-one], the values for the half-inhibitory concentration (IC50) at human recombinant PLK4 and in the test with CHP-134 cells were 7.32 nM and 2360 nM, respectively. Further, in test [1], the “[Aurora A IC50 (nM)]/[PLK4 IC50 (nM)]” value came to 457.0413. For the same compound, in test [2], the “[Aurora B IC50 (nM)]/[PLK4 IC50 (nM)]” value turned out to be 902.3357.

Turning to `COc1ccc2c(c1)[C@]1(C[C@H]1c1ccc3c(Nc4nc(C5COC5)ncc4OC)n[nH]c3c1)C(=O)N2` [Example 119, (1R,2S)-5′-methoxy-2-(3-{[5-methoxy-2-(oxetan-3-yl)pyrimidin-4-yl)amino}-1H-indazol-6-yl)spiro[cyclopropane-1,3′-indol]-2′(1′H)-one], the IC50 came to 1.59 nM on human recombinant PLK4 and 2660 nM with CHP-134 cells. Besides, the “[Aurora A IC50 (nM)]/[PLK4 IC50 (nM)]” value in test [1] came out at 870.2770. For the same compound, the “[Aurora B IC50 (nM)]/[PLK4 IC50 (nM)]” value in test [2] came to 973.5516.

Regarding `COc1ccc2c(c1)[C@]1(C[C@H]1c1ccc3c(Nc4nc(N5CC(O)C5)ncc4Cl)n[nH]c3c1)C(=O)N2` [Example 120, (1R,2S)-2-(3-{[5-chloro-2-(3-hydroxyazetidin-1-yl)pyrimidin-4-yl]amino}-1H-indazol-6-yl)-5′-methoxyspiro[cyclopropane-1,3′-indol]-2′(1′H)-one], the IC50 on human recombinant PLK4 was 3.81 nM; in the test with CHP-134 cells, 10000 nM. Further, the “[Aurora A IC50 (nM)]/[PLK4 IC50 (nM)]” value in test [1] stood at 444.0366. Further, the “[Aurora B IC50 (nM)]/[PLK4 IC50 (nM)]” value in test [2] came out at 684.6657.

Take `COc1ccc2c(c1)[C@]1(C[C@H]1c1ccc3c(Nc4nc(C)ncc4OC(F)F)n[nH]c3c1)C(=O)N2` [Example 121, (1R,2S)-2-(3-{[5-(difluoromethoxy)-2-methylpyrimidin-4-yl]amino}-1H-indazol-6-yl)-5′-methoxyspiro[cyclopropane-1,3′-indol]-2′(1′H)-one]: the IC50 at human recombinant PLK4 came out at 1.79 nM; with CHP-134 cells, 5320 nM. For the same compound, in test [1], the “[Aurora A IC50 (nM)]/[PLK4 IC50 (nM)]” value was found to be 875.6967. Also, the “[Aurora B IC50 (nM)]/[PLK4 IC50 (nM)]” value in test [2] was 230.8807.

With `COc1ccc2c(c1)[C@]1(C[C@H]1c1ccc3c(Nc4nc(C)ncc4OC)n[nH]c3c1F)C(=O)N2` [Example 123, (1R,2R)-2-{7-fluoro-3-[(5-methoxy-2-methylpyrimidin-4-yl)amino]-1H-indazol-6-yl}-5′-methoxyspiro[cyclopropane-1,3′-indol]-2′(1′H)-one], the IC50 at human recombinant PLK4 came out at 4.8 nM; in the test with CHP-134 cells it was 2110 nM. Further, the “[Aurora A IC50 (nM)]/[PLK4 IC50 (nM)]” value in test [1] is reported as 667.5698. For the same compound, the “[Aurora B IC50 (nM)]/[PLK4 IC50 (nM)]” value in test [2] is 84.1.

For `COc1ccc2c(c1)[C@]1(C[C@H]1c1ccc3c(Nc4nc(C(C)C)ncc4OC)n[nH]c3c1)C(=O)N2` [Example 125, (1R,2S)-5′-methoxy-2-(3-{[5-methoxy-2-(propan-2-yl)pyrimidin-4-yl]amino}-1H-indazol-6-yl)spiro[cyclopropane-1,3′-indol]-2′(1′H)-one], the IC50 on human recombinant PLK4 was 0.833 nM; in the test with CHP-134 cells, 160 nM. Also, in test [1], the “[Aurora A IC50 (nM)]/[PLK4 IC50 (nM)]” value is reported as 1323.9707. In addition, in test [2], the “[Aurora B IC50 (nM)]/[PLK4 IC50 (nM)]” value is given as 495.7388.

The record behind these values is patent US20230365537A1, “POLO LIKE KINASE 4 INHIBITORS” (ORIC Pharmaceuticals, Inc., priority 2021, published 2023).
